Source: patent publication US7501238B2, “Skin substitutes for irritancy testing” (priority 2001, dated 2009)
Where two headings read alike, the source gives them in different places.

Legend:
skin equivalents = conditions: irritant-treated skin equivalents; 0.2% SDS, 0.005% calcipotriol, 0.025% trans-retinoic acid; cited from earlier work
[1] = test system: NIKS organotypic cultures; experiment: IL-1α secretion by NIKS organotypic cultures after topical irritant (ELISA); format: cell-based, human; conditions: 24 hr at 37° C.
Method: (§1) Solutions of SDS (0.1%, 0.2%, and 0.5%) were topically applied to air-exposed NIKS organotypic cultures and incubated for 24 hr at 37° C. After 24 hr, the media underneath the cultures was assayed for IL-1α protein using a Quantikine IL-1α ELISA kit (R&D Systems, Minneapolis, Minn.) and cultures were incubated with MTS reagent (Promega Corp., Madison, Wis.) to determine cell viability. Media from untreated cultures contained 25 pg/ml IL-1α, whereas the concentration of IL-1α in cultures treated with 0.1%, 0.2% or 0.5% SDS was 290, 375 and 275 pg/ml respectively.

[2] = test system: NIKS organotypic cultures; experiment: MTS cell viability of irritant-treated NIKS organotypic cultures; format: cell-based, human; conditions: 0.5% SDS, 24 hr
Method: as §1
These values correspond well with published IL-1α responses in SDS-exposed skin equivalents (Perkins et al, Toxicological Sciences, 48:218 [1999]).

[3] = test system: in vitro skin equivalent cultures; conditions: substance added to in vitro cultures, cited from earlier work
[4] = test system: IL-8 promoter sequences between −1472 and +19 in tracheobronchial epithelial cells; conditions: cited from earlier work

Molecule | expression and secretion of the pro-inflammatory cytokines IL-1α and IL-8 (skin equivalents) | Lipid Composition [3] | other results
CCCCCCCCCCCCOS(=O)(=O)[O-].[Na+] [SDS] | induce expression and secretion |  | concentration of IL-1α in media ([1]; 0.1% SDS applied topically): 290 pg/mL; concentration of IL-1α in media ([1]; 0.2% SDS applied topically): 375 pg/mL; concentration of IL-1α in media ([1]; 0.5% SDS applied topically): 275 pg/mL; cell viability (MTS assay) [2]: decreased cell viability
O=C1O[C@H]([C@@H](O)CO)C(O)=C1O [Vitamin C] |  | Major | Lipid Composition ([3]; listed as vitamin C): improved the lipid profile
C=C1/C(=C\C=C2/CCC[C@]3(C)[C@@H]([C@H](C)/C=C/[C@@H](O)C4CC4)CC[C@@H]23)C[C@@H](O)C[C@@H]1O [calcipotriol] | induce expression and secretion |  | 
CC1=C(/C=C/C(C)=C/C=C/C(C)=C/C(=O)O)C(C)(C)CCC1 [trans-retinoic acid] | induce expression and secretion |  | induction of reporter gene containing IL-8 promoter sequences [4]: induced
EGF: epidermal growth factor (NSDSECPLSHDGYCLHDGVCMYIEALDKYACNCVVGYIGERCQYRDLKWWELR; Epidermal growth factor; UniProt P01133 971-1023, looked up) |  | High triglycerides | 
Vitamin E |  | No effect | 
